Measured values: the supplement of paper PMC9663587

Assays:
ABT-737 = compound: CN(C)CC[C@H](CSc1ccccc1)Nc1ccc(S(=O)(=O)NC(=O)c2ccc(N3CCN(Cc4ccccc4-c4ccc(Cl)cc4)CC3)cc2)cc1[N+](=O)[O-] [ABT-737]
Saracatinib/AZD0530 = compound: CN1CCN(CCOc2cc(OC3CCOCC3)c3c(Nc4c(Cl)ccc5c4OCO5)ncnc3c2)CC1 [Saracatinib/AZD0530]
Flavopiridol [1] = compound: T1, CN1CC[C@H](c2c(O)cc(O)c3c(=O)cc(-c4ccccc4Cl)oc23)[C@H](O)C1 [Flavopiridol]
[2] = compound: CO[C@@H](C)Cn1c(=O)n(C)c2cnc3ccc(-c4cncc(C(C)(C)O)c4)cc3c21
Taselisib/GDC0032 = compound: Cc1nc(-c2cn3c(n2)-c2ccc(-c4cnn(C(C)(C)C(N)=O)c4)cc2OCC3)n(C(C)C)n1 [Taselisib/GDC0032]
YKL-5-124 = compound: C=CC(=O)Nc1ccc(C(=O)Nc2[nH]nc3c2CN(C(=O)N[C@H](CN(C)C)c2ccccc2)C3(C)C)cc1 [YKL-5-124]; test: GR value, 72 h; higher = faster growth (1 = untreated, <0 = killing);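 further: breast cancer and non-malignant breast epithelial lines, nine half-log doses, viable cells counted by Hoechst and LIVE/DEAD dye imaging versus time-zero plates and DMSO controls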
BSJ-03-123 = compound: CC(=O)c1c(C)c2cnc(Nc3ccc(N4CCN(CCOCCOCCOCCNC(=O)COc5cccc6c5C(=O)N(C5CCC(=O)NC5=O)C6=O)CC4)cn3)nc2n(C2CCCC2)c1=O [BSJ-03-123]; test: as above
[3] = compound: CC(=O)c1c(C)c2cnc(Nc3ccc(N4CCNCC4)cn3)nc2n(C2CCCC2)c1=O; test: as above
[4] = compound: CCN1CCN(Cc2ccc(Nc3ncc(F)c(-c4cc(F)c5nc(C)n(C(C)C)c5c4)n3)nc2)CC1; test: as above
Neratinib/HKI272 = compound: CCOc1cc2ncc(C#N)c(Nc3ccc(OCc4ccccn4)c(Cl)c3)c2cc1NC(=O)/C=C/CN(C)C [Neratinib/HKI272]; test: as above
[5] = compound: CCc1cnn2c(NCc3ccc[n+]([O-])c3)cc(N3CCCC[C@H]3CCO)nc12; test: as above
LEE011/Ribociclib = compound: CN(C)C(=O)c1cc2cnc(Nc3ccc(N4CCNCC4)cn3)nc2n1C1CCCC1 [LEE011/Ribociclib]; test: as above
THZ531 = compound: CN(C)C/C=C/C(=O)Nc1ccc(C(=O)N2CCC[C@@H](Nc3ncc(Cl)c(-c4c[nH]c5ccccc45)n3)C2)cc1 [THZ531]; test: as above
THZ1 = compound: CN(C)C/C=C/C(=O)Nc1ccc(C(=O)Nc2cccc(Nc3ncc(Cl)c(-c4c[nH]c5ccccc45)n3)c2)cc1 [THZ1]; test: as above
Flavopiridol [6] = compound: T1, Flavopiridol; test: as above
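Wherever GR50, 72 h is given: breast cancer and non-malignant breast epithelial cell lines, Deep Dye Drop or Dye Drop imaging, nine half-log doses, GR normalized to time-zero plates and DMSO-only controls.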

Which “GR50, 72 h” value (ABT-737) does the source give for HCC1806 here?
The value was greater than 10 µM.

And the “GR50, 72 h” value (Saracatinib/AZD0530)?
Its value is 1.73 µM.

And the “GR50, 72 h” value (Flavopiridol [1])?
The value was 0.168 µM.

What about the “GR50, 72 h” value [2] of the same cell line?
Its value is 0.347 µM.

And the “GR50, 72 h” value (Taselisib/GDC0032)?
Its value is 1.55 µM.

What about the GR value (YKL-5-124; 0.001 µM) of the same cell line?
Its GR value is 0.386 GR.

And the GR value (YKL-5-124; 0.003162 µM)?
Its GR value is 0.232 GR.

And the GR value (YKL-5-124; 0.01 µM)?
The GR value was 0.105 GR.

What about the GR value (YKL-5-124; 0.03162 µM) of the same cell line?
Its GR value is 0.0295 GR.

What about the GR value (YKL-5-124; 0.1 µM) of the same cell line?
The GR value was -0.0411 GR.

What about the GR value (YKL-5-124; 0.3162 µM) of the same cell line?
The GR value was -0.075 GR.

What about the GR value (YKL-5-124; 1 µM) of the same cell line?
The GR value was -0.155 GR.

What about the GR value (YKL-5-124; 3.162 µM) of the same cell line?
Its GR value is -0.19 GR.

And the GR value (YKL-5-124; 10 µM)?
The GR value was -0.466 GR.

And the GR value (BSJ-03-123; 0.001 µM)?
Its GR value is 1 GR.

And the GR value (BSJ-03-123; 0.003162 µM)?
Its GR value is 0.98 GR.

What about the GR value (BSJ-03-123; 0.01 µM) of the same cell line?
The GR value was 0.958 GR.

What about the GR value (BSJ-03-123; 0.03162 µM) of the same cell line?
The GR value was 0.963 GR.

And the GR value (BSJ-03-123; 0.1 µM)?
The GR value was 0.902 GR.

What about the GR value (BSJ-03-123; 0.3162 µM) of the same cell line?
The GR value was 0.831 GR.

What about the GR value (BSJ-03-123; 1 µM) of the same cell line?
Its GR value is 0.648 GR.

And the GR value (BSJ-03-123; 3.162 µM)?
Its GR value is 0.566 GR.

And the GR value (BSJ-03-123; 10 µM)?
Its GR value is -0.0555 GR.

What about the GR value ([3]; 0.0003162 µM) of the same cell line?
Its GR value is 1.07 GR.

What about the GR value ([3]; 0.001 µM) of the same cell line?
The GR value was 1.02 GR.

What about the GR value ([3]; 0.003162 µM) of the same cell line?
Its GR value is 0.939 GR.

And the GR value ([3]; 0.01 µM)?
The GR value was 0.965 GR.

And the GR value ([3]; 0.03162 µM)?
Its GR value is 0.851 GR.

What about the GR value ([3]; 0.1 µM) of the same cell line?
Its GR value is 0.695 GR.

And the GR value ([3]; 0.3162 µM)?
Its GR value is 0.739 GR.

What about the GR value ([3]; 1 µM) of the same cell line?
The GR value was 0.625 GR.

And the GR value ([3]; 3.162 µM)?
The GR value was 0.771 GR.

What about the GR value ([4]; 0.001 µM) of the same cell line?
The GR value was 0.986 GR.

What about the GR value ([4]; 0.003162 µM) of the same cell line?
The GR value was 0.943 GR.

And the GR value ([4]; 0.01 µM)?
The GR value was 0.894 GR.

What about the GR value ([4]; 0.03162 µM) of the same cell line?
The GR value was 0.779 GR.

What about the GR value ([4]; 0.1 µM) of the same cell line?
The GR value was 0.75 GR.

What about the GR value ([4]; 0.3162 µM) of the same cell line?
The GR value was 0.667 GR.

What about the GR value ([4]; 1 µM) of the same cell line?
Its GR value is 0.447 GR.

And the GR value ([4]; 3.162 µM)?
The GR value was 0.129 GR.

And the GR value ([4]; 10 µM)?
The GR value was -0.456 GR.

And the GR value (Neratinib/HKI272; 0.0003162 µM)?
Its GR value is 1.08 GR.

And the GR value (Neratinib/HKI272; 0.001 µM)?
The GR value was 1.06 GR.

What about the GR value (Neratinib/HKI272; 0.003162 µM) of the same cell line?
Its GR value is 1.04 GR.

And the GR value (Neratinib/HKI272; 0.01 µM)?
The GR value was 0.99 GR.

And the GR value (Neratinib/HKI272; 0.03162 µM)?
The GR value was 0.881 GR.

What about the GR value (Neratinib/HKI272; 0.1 µM) of the same cell line?
Its GR value is 0.811 GR.

And the GR value (Neratinib/HKI272; 0.3162 µM)?
Its GR value is 0.675 GR.

What about the GR value (Neratinib/HKI272; 1 µM) of the same cell line?
The GR value was 0.546 GR.

What about the GR value (Neratinib/HKI272; 3.162 µM) of the same cell line?
The GR value was -0.0945 GR.

What about the GR value ([5]; 0.0001 µM) of the same cell line?
The GR value was 1.04 GR.

And the GR value ([5]; 0.0003162 µM)?
The GR value was 1.05 GR.

What about the GR value ([5]; 0.001 µM) of the same cell line?
The GR value was 1 GR.

And the GR value ([5]; 0.003162 µM)?
Its GR value is 1.01 GR.

What about the GR value ([5]; 0.01 µM) of the same cell line?
The GR value was 0.798 GR.

And the GR value ([5]; 0.03162 µM)?
Its GR value is -0.315 GR.

And the GR value ([5]; 0.1 µM)?
Its GR value is -0.472 GR.

And the GR value ([5]; 0.3162 µM)?
Its GR value is -0.465 GR.

And the GR value ([5]; 1 µM)?
Its GR value is -0.45 GR.

And the GR value (LEE011/Ribociclib; 0.001 µM)?
Its GR value is 0.919 GR.

And the GR value (LEE011/Ribociclib; 0.003162 µM)?
Its GR value is 0.948 GR.

And the GR value (LEE011/Ribociclib; 0.01 µM)?
The GR value was 0.884 GR.

What about the GR value (LEE011/Ribociclib; 0.03162 µM) of the same cell line?
The GR value was 0.886 GR.

And the GR value (LEE011/Ribociclib; 0.1 µM)?
The GR value was 0.876 GR.

What about the GR value (LEE011/Ribociclib; 0.3162 µM) of the same cell line?
Its GR value is 0.824 GR.

What about the GR value (LEE011/Ribociclib; 1 µM) of the same cell line?
Its GR value is 0.796 GR.

And the GR value (LEE011/Ribociclib; 3.162 µM)?
The GR value was 0.801 GR.

And the GR value (LEE011/Ribociclib; 10 µM)?
Its GR value is 0.699 GR.

And the GR value (THZ531; 0.0001 µM)?
The GR value was 0.976 GR.

And the GR value (THZ531; 0.0003162 µM)?
Its GR value is 0.999 GR.

And the GR value (THZ531; 0.001 µM)?
The GR value was 1.04 GR.

And the GR value (THZ531; 0.003162 µM)?
The GR value was 1.01 GR.

And the GR value (THZ531; 0.01 µM)?
The GR value was 1.07 GR.

What about the GR value (THZ531; 0.03162 µM) of the same cell line?
The GR value was 1 GR.

What about the GR value (THZ531; 0.1 µM) of the same cell line?
The GR value was 0.992 GR.

What about the GR value (THZ531; 0.3162 µM) of the same cell line?
Its GR value is 0.659 GR.

What about the GR value (THZ531; 1 µM) of the same cell line?
The GR value was -0.489 GR.

What about the GR value (THZ1; 0.0001 µM) of the same cell line?
Its GR value is 1.08 GR.

What about the GR value (THZ1; 0.0003162 µM) of the same cell line?
Its GR value is 1.04 GR.

What about the GR value (THZ1; 0.001 µM) of the same cell line?
Its GR value is 1.04 GR.

What about the GR value (THZ1; 0.003162 µM) of the same cell line?
Its GR value is 1 GR.

And the GR value (THZ1; 0.01 µM)?
The GR value was 0.968 GR.

And the GR value (THZ1; 0.03162 µM)?
Its GR value is 0.739 GR.

And the GR value (THZ1; 0.1 µM)?
Its GR value is 0.323 GR.

And the GR value (THZ1; 0.3162 µM)?
The GR value was -0.252 GR.

And the GR value (THZ1; 1 µM)?
The GR value was -0.656 GR.

What about the GR value (Flavopiridol [6]; 0.0001 µM) of the same cell line?
The GR value was 0.956 GR.

And the GR value (Flavopiridol [6]; 0.0003162 µM)?
Its GR value is 1.03 GR.

What about the GR value (Flavopiridol [6]; 0.001 µM) of the same cell line?
The GR value was 1.04 GR.

What about the GR value (Flavopiridol [6]; 0.003162 µM) of the same cell line?
Its GR value is 0.878 GR.

What about the GR value (Flavopiridol [6]; 0.01 µM) of the same cell line?
Its GR value is 1.03 GR.

What about the GR value (Flavopiridol [6]; 0.03162 µM) of the same cell line?
Its GR value is 0.926 GR.

And the GR value (Flavopiridol [6]; 0.1 µM)?
The GR value was 0.659 GR.

And the GR value (Flavopiridol [6]; 0.3162 µM)?
The GR value was 0.199 GR.

And the GR value (Flavopiridol [6]; 1 µM)?
The GR value was -0.565 GR.
